Measurements from ChEMBL document CHEMBL6127075, “Tetrazoles: A multi-potent motif in drug design” (Eur J Med Chem, 2024).
Values after ≈ are worked out from the molar mass of the structure shown.

Assays:
[1] = target: Type-1 angiotensin II receptor (Homo sapiens) (UniProt P30556); test: Inhibition of Angiotensin-2 receptor (unknown origin)
[2] = target: T1, Tyrosine-protein phosphatase non-receptor type 1 (Homo sapiens, UniProt P18031); test: Inhibition of PTP1B (unknown origin)
T1 sequence (P18031 whole entry): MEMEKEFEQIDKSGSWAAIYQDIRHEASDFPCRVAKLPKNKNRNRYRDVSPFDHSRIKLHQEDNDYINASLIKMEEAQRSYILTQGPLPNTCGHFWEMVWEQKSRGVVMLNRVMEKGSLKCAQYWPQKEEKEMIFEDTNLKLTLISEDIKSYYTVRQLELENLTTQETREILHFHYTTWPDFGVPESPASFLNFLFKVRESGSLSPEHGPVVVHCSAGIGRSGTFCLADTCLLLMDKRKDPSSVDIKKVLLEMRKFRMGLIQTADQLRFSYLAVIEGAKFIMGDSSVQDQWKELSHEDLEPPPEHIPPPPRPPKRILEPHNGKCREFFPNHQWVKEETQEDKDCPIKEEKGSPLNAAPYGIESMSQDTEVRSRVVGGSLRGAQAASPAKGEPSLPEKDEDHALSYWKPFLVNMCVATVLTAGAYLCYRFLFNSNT

DU-145 = test: Antiproliferative activity against human DU-145 cells assessed as inhibition of cell growth measured after 24 hrs by MTT assay; assay type: functional, cell-based; conditions: DU-145, 24 h
PC-3 [3] = test: Antiproliferative activity against human PC-3 cells assessed as inhibition of cell growth measured after 24 hrs by MTT assay; assay type: functional, cell-based; conditions: PC-3, 24 h
[4] = Antiproliferative activity against human RWPE-1 cells assessed as inhibition of cell growth measured after 24 hrs by MTT assay; assay type: toxicity, cell-based
Escherichia coli [5] = test: Antimicrobial activity against Escherichia coli NCTC 8196 assessed as reduction in microbial growth measured fro 18 hrs by two-fold serial dilution method; assay type: functional
Escherichia coli [6] = test: Antibacterial activity against Escherichia coli ATCC 25922 assessed as reduction in microbial growth by incubated for 18 hrs CLSI based broth microdilution method; assay type: functional
[7] = tested on: Staphylococcus epidermidis; test: Antibacterial activity against Staphylococcus epidermidis ATCC 12228 assessed as reduction in microbial growth by incubated for 18 hrs CLSI based broth microdilution method; assay type: functional
HUVEC = test: Antiproliferative activity against HUVEC cells assessed as inhibition of cell proliferation incubated for 72 hrs by Cell Titer Luminescence assay; assay type: functional, cell-based; conditions: Homo sapiens
MCF7 [8] = test: Cytotoxicity against human MCF7 cells assessed as reduction in cell viability incubated for 24 hrs by MTT assay; assay type: functional, cell-based; conditions: MCF7, 24 h
HepG2 = test: Cytotoxicity against human HepG2 cells assessed as reduction in cell viability incubated for 24 hrs by MTT assay; assay type: functional, cell-based; conditions: HepG2, 24 h
PC-3 [9] = test: Cytotoxicity against human PC-3 cells assessed as reduction in cell growth incubated for 24 hrs by MTT assay; assay type: functional, cell-based; conditions: PC-3, 24 h
MCF7 [10] = test: Cytotoxicity against human MCF7 cells assessed as reduction in cell growth at 25 uM incubated for 48 hrs by MTT assay relative to control; assay type: functional; parameters: scale not given: the % may be the effect or the level left
CCRF-CEM = test: Cytotoxicity against human CCRF-CEM cells assessed as reduction in cell growth at 25 uM incubated for 48 hrs by MTT assay relative to control; assay type: functional; parameters: scale not given: the % may be the effect or the level left
[11] = Antioxidant activity assessed as DPPH radical scavenging activity after 30 mins by spectrophotometric analysis; assay type: functional
[12] = tested on: Staphylococcus epidermidis; test: Antibacterial activity against Staphylococcus epidermidis ATCC 12228 assessed as bacterial growth inhibition incubated for 24 hrs by broth dilution method; assay type: functional
Escherichia coli [13] = test: Antibacterial activity against Escherichia coli ATCC 25922 assessed as bacterial growth inhibition incubated for 24 hrs by broth dilution method; assay type: functional
Staphylococcus aureus [14] = test: Antibacterial activity against Staphylococcus aureus ATCC 29213 assessed as bacterial growth inhibition incubated for 24 hrs by broth dilution method; assay type: functional
Pseudomonas aeruginosa [15] = test: Antimicrobial activity against Pseudomonas aeruginosa ATCC 27853 assessed as inhibition of microbial growth incubated for 24 hrs by broth microdilution method; assay type: functional
Staphylococcus aureus [16] = test: Antibacterial activity against Staphylococcus aureus MTCC-96 assessed as bacterial growth inhibition after 24 hrs by broth macro dilution method; assay type: functional
Pseudomonas aeruginosa [17] = test: Antibacterial activity against Pseudomonas aeruginosa assessed as bacterial growth inhibition after 24 hrs by broth macro dilution method; assay type: functional
Micrococcus luteus = test: Antibacterial activity against Micrococcus luteus assessed as bacterial growth inhibition after 24 hrs by broth macro dilution method; assay type: functional
Escherichia coli [18] = test: Antibacterial activity against Escherichia coli assessed as bacterial growth inhibition after 24 hrs by broth macro dilution method; assay type: functional
Staphylococcus aureus [19] = test: Antibacterial activity against Staphylococcus aureus MTCC-739 assessed as bacterial growth inhibition after 24 hrs by broth macro dilution method; assay type: functional
Pichia kudriavzevii = test: Antifungal activity against Candida krusei ATCC 6258 assessed as inhibition of fungal growth incubated for 24 hrs by microtiter plate reader assay; assay type: functional
Cholinesterase = Cholinesterase (Homo sapiens, UniProt P06276); test: Inhibition of BChE (unknown origin) using acetylthiocholine iodide as substrate preincubated for 20 mins followed by substrate addition and measured after 5 mins by Ellman's method
Cholinesterase, sequence (P06276 whole entry): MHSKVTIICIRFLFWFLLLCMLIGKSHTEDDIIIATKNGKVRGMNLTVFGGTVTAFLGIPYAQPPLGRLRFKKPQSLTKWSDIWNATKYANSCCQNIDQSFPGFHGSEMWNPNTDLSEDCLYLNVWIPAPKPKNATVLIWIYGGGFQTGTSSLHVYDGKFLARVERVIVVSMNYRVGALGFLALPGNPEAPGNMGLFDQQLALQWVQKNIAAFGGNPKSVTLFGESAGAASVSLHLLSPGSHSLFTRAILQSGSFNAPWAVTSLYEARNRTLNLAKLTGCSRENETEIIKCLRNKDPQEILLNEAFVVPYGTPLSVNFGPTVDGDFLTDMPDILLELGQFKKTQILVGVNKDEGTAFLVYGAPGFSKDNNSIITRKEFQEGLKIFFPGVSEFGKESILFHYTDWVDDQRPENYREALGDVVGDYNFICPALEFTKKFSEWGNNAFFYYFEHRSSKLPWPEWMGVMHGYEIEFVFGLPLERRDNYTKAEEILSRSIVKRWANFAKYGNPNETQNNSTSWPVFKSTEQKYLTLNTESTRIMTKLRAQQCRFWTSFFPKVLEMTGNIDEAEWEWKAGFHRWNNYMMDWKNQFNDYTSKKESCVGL

Nannizzia gypsea = test: Antifungal activity against Microsporum gypseum assessed as reduction in fungal growth; assay type: functional
Staphylococcus aureus [20] = test: Antibacterial activity against Staphylococcus aureus assessed as reduction in microbial growth by CLSI based broth microdilution method; assay type: functional
Aspergillus flavus = test: Antifungal activity against Aspergillus flavus assessed as inhibition of fungal growth; assay type: functional
[21] = Antagonist activity at NMDA receptor (unknown origin); parameters: species or system Homo sapiens

Type-1 angiotensin II receptor (Homo sapiens), sequence (P30556 whole entry, looked up): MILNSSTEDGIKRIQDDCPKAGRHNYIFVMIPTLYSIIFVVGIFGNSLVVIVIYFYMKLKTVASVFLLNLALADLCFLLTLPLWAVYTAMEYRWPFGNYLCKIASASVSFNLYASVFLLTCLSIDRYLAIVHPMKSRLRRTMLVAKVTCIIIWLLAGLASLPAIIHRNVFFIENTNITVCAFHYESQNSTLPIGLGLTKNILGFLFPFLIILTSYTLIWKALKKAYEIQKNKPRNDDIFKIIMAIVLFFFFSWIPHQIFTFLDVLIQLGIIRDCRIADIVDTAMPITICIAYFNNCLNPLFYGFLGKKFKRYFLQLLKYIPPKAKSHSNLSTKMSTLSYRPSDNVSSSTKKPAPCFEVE

O=P(O)(O)CN[C@@H](Cc1ccc(-c2ccccc2)cc1)c1nnn[nH]1
IC50 [1]: 0.0009 µM

OC1C2CC3CC1CC(C2)C3(Cc1nnn[nH]1)c1ccc(-c2ccc(F)cc2)cc1 (stereo not drawn)
IC50 [2]: 0.0037 µM

O=C1N(Cc2ccc(Br)cc2)c2ccccc2C1(O)Cc1nnn[nH]1 (stereo not drawn)
IC50 (DU-145): 11.7 µM | IC50 (PC-3 [3]): 10.1 µM | IC50 at 24 h [4]: 76 µM

Cc1ccc(-n2nnnc2NCc2ccco2)cc1Cl
MIC (Escherichia coli [5]): 2 µg/mL | MIC (Escherichia coli [6]): 2 µg/mL | MIC [7]: 2 µg/mL

Fc1ccc(-n2nnnc2NCc2ccco2)cc1Cl
MIC (Escherichia coli [5]): 2 µg/mL | MIC (Escherichia coli [6]): 2 µg/mL | MIC [7]: 2 µg/mL

CCC(C)n1ncn(-c2ccc(N3CCN(c4ccc(OC[C@@H]5CO[C@@](Cn6ncnn6)(c6ccc(Cl)cc6Cl)O5)cc4)CC3)cc2)c1=O (stereo partly drawn)
IC50 (HUVEC): 0.073 µM

Clc1ccc(-c2nnn(-c3[se]nnc3-c3ccc(Cl)cc3)n2)cc1
IC50 (MCF7 [8]): 43.2 µM | IC50 (HepG2): 43.2 µM

Clc1ccc(-c2nn[se]c2-n2nnc(-c3ccccc3)n2)cc1
IC50 (MCF7 [8]): 43.2 µM | IC50 (HepG2): 43.2 µM

Clc1ccc(-c2nn[se]c2-n2nnc(-c3ccccc3Cl)n2)cc1
IC50 (MCF7 [8]): 43.2 µM | IC50 (HepG2): 43.2 µM

O=C(O)Cn1nnc(-c2cn(-c3ccccc3)nc2-c2ccc(Cl)cc2)n1
IC50 (PC-3 [9]): 6.43 µM

Clc1ccccc1-c1nnnn1CCCn1cnc2c(Br)c(Br)c(Br)c(Br)c21
Activity (MCF7 [10]): <1% | Activity (CCRF-CEM): <1%

Brc1c(Br)c(Br)c2c(ncn2CCCn2nnnc2-c2ccccc2)c1Br
Activity (MCF7 [10]): <1% | Activity (CCRF-CEM): <1%

O=S(=O)(c1ccccc1)n1nnc(CCSc2cc3ccccc3[nH]2)n1
IC50 [11]: 27.63 µg/mL (≈ 71.7 µM)

CC1=C(C)C2(C)CC1(C)C1C(=O)N(Nc3nnnn3-c3ccccc3Cl)C(=O)C12 (stereo not drawn)
MIC [12]: 0.4 µg/mL (≈ 0.969 µM) | MIC (Escherichia coli [13]): 0.4 µg/mL (≈ 0.969 µM) | MIC (Staphylococcus aureus [14]): 0.4 µg/mL (≈ 0.969 µM) | MIC (Pseudomonas aeruginosa [15]): 0.4 µg/mL

Cn1ncc2cc(-n3cc(CSc4nnnn4-c4ccc(F)cc4F)nn3)ccc21
MIC (Staphylococcus aureus [16]): 5 µg/mL (≈ 11.8 µM) | MIC (Pseudomonas aeruginosa [17]): 5 µg/mL (≈ 11.8 µM) | MIC (Micrococcus luteus): 5 µg/mL (≈ 11.8 µM) | MIC (Escherichia coli [18]): 5 µg/mL (≈ 11.8 µM) | MIC (Staphylococcus aureus [19]): 5 µg/mL (≈ 11.8 µM)

Cc1cn(C2OC(CO)CC2n2nnnc2Cc2c[nH]c3ccccc23)c(=O)[nH]c1=O (stereo not drawn)
IC50 [11]: 25.87 µg/mL (≈ 61.1 µM)

CC1=C(C)C2(C)CC1(C)C1C(=O)N(Nc3nnnn3-c3cccc(C(F)(F)F)c3)C(=O)C12 (stereo not drawn)
MIC [12]: 0.4 µg/mL (≈ 0.896 µM) | MIC (Escherichia coli [13]): 0.4 µg/mL (≈ 0.896 µM) | MIC (Staphylococcus aureus [14]): 0.4 µg/mL (≈ 0.896 µM) | MIC (Pseudomonas aeruginosa [15]): 0.4 µg/mL

Cc1cn(C2OC(CO)CC2n2nnnc2-c2cccnc2Cl)c(=O)[nH]c1=O (stereo not drawn)
IC50 [11]: 25.87 µg/mL (≈ 63.8 µM)

Clc1ncccc1-c1nnn[nH]1
IC50 [11]: 27.63 µg/mL (≈ 152 µM)

Cn1ncc2cc(-n3cc(CSc4nnnn4-c4cccc(O)c4)nn3)ccc21
MIC (Staphylococcus aureus [16]): 5 µg/mL (≈ 12.3 µM) | MIC (Pseudomonas aeruginosa [17]): 5 µg/mL (≈ 12.3 µM) | MIC (Micrococcus luteus): 5 µg/mL (≈ 12.3 µM) | MIC (Escherichia coli [18]): 5 µg/mL (≈ 12.3 µM) | MIC (Staphylococcus aureus [19]): 5 µg/mL (≈ 12.3 µM)

Fc1ccccc1-n1nnnc1NCc1ccco1
MIC (Escherichia coli [5]): 2 µg/mL | MIC (Escherichia coli [6]): 2 µg/mL | MIC [7]: 2 µg/mL

COc1ccc(-c2nnc(C[Se]c3nnn[nH]3)o2)cc1
IC50 [11]: 27.63 µg/mL (≈ 81.9 µM)

Cn1ncc2cc(-n3cc(CSc4nnnn4-c4cccc(F)c4)nn3)ccc21
MIC (Staphylococcus aureus [16]): 5 µg/mL (≈ 12.3 µM) | MIC (Pseudomonas aeruginosa [17]): 5 µg/mL (≈ 12.3 µM) | MIC (Micrococcus luteus): 5 µg/mL (≈ 12.3 µM) | MIC (Escherichia coli [18]): 5 µg/mL (≈ 12.3 µM) | MIC (Staphylococcus aureus [19]): 5 µg/mL (≈ 12.3 µM)

Cn1nnnc1SCC(=O)N1CCN(C2CCCCC2)CC1
MIC (Pichia kudriavzevii): 3.9 µg/mL (≈ 12 µM)

COc1ccccc1C1=C(C#N)/C(=C(/C)c2nnn[nH]2)NC(C)(c2ccccc2OC)C1 (stereo not drawn)
IC50 (Cholinesterase): 0.29 µM

O=P(O)(O)CN[C@@H](Cc1ccc2oc3ccccc3c2c1)c1nnn[nH]1
IC50 [1]: 0.006 µM

Cn1ncc2cc(-n3cc(CSc4nnnn4-c4cccc([N+](=O)[O-])c4)nn3)ccc21
MIC (Staphylococcus aureus [16]): 5 µg/mL (≈ 11.5 µM) | MIC (Pseudomonas aeruginosa [17]): 5 µg/mL (≈ 11.5 µM) | MIC (Nannizzia gypsea): 11 µg/mL (≈ 25.3 µM) | MIC (Micrococcus luteus): 5 µg/mL (≈ 11.5 µM) | MIC (Escherichia coli [18]): 5 µg/mL (≈ 11.5 µM) | MIC (Staphylococcus aureus [19]): 5 µg/mL (≈ 11.5 µM)

CC1=C(C)C2(C)CC1(C)C1C(=O)N(Nc3nnnn3-c3ccccc3Br)C(=O)C12 (stereo not drawn)
MIC [12]: 0.4 µg/mL (≈ 0.875 µM) | MIC (Staphylococcus aureus [20]): 0.1 µg/mL | MIC (Escherichia coli [13]): 0.4 µg/mL (≈ 0.875 µM) | MIC (Staphylococcus aureus [14]): 0.4 µg/mL (≈ 0.875 µM) | MIC (Pseudomonas aeruginosa [15]): 0.4 µg/mL

COc1ccc(-n2nnnc2SCc2cn(-c3ccc4c(cnn4C)c3)nn2)cc1
MIC (Aspergillus flavus): 10 µg/mL (≈ 23.8 µM)

C1=C(c2nnn(Cc3cn(Cc4ccccc4)nn3)n2)COc2ccccc21
IC50 [11]: 27.63 µg/mL (≈ 74.4 µM)

O=C(O)[C@H]1C[C@@H](Cc2nnn[nH]2)CCN1 (single isomer, unassigned)
IC50 [21]: 0.1 µM

COc1cccc2c1C(=O)c1c(O)c3c(c(O)c1C2=O)C[C@@](O)(C(=O)CO)C[C@@H]3O[C@H]1C[C@H](N)[C@H](O)[C@H](C)O1 [DOXORUBICIN]
IC50 (PC-3 [9]): 2.24 µM

OC(Cn1cncn1)(Cn1cncn1)c1ccc(F)cc1F [FLUCONAZOLE]
MIC (Pichia kudriavzevii): 7.8 µg/mL (≈ 25.5 µM)

CO/N=C1\CN(c2nc3c(cc2F)c(=O)c(C(=O)O)cn3C2CC2)CC1CN (stereo not drawn) [GEMIFLOXACIN]
MIC (Pseudomonas aeruginosa [17]): 10 µg/mL (≈ 25.7 µM) | MIC (Escherichia coli [18]): 10 µg/mL (≈ 25.7 µM)

CCC(C)n1ncn(-c2ccc(N3CCN(c4ccc(OCC5COC(Cn6cncn6)(c6ccc(Cl)cc6Cl)O5)cc4)CC3)cc2)c1=O (stereo not drawn) [ITRACONAZOLE]
MIC (Aspergillus flavus): 8 µg/mL (≈ 11.3 µM) | MIC (Nannizzia gypsea): 10 µg/mL (≈ 14.2 µM)

C[C@@H](c1ncncc1F)[C@](O)(Cn1cncn1)c1ccc(F)cc1F [VORICONAZOLE]
MIC (Pichia kudriavzevii): 3.9 µg/mL (≈ 11.2 µM)
